Values of other authors, collected in patent US20110105443A1, “SALTS OF MEMANTINE AND COX-INHIBITORS AND THEIR CRYSTAL FORM IN THE TREATMENT OF PAIN” (LABORATORIES DEL DR. ESTEVE, S.A., priority 2008, published 2011).

Details: stated property of the free drug (base or acid), no method given

Which pKa does the source give for `CC(=O)Oc1cc(C(F)(F)F)ccc1C(=O)O` [Triflusal, 2-acetoxy-4-trifluoromethyl-benzoic acid] here?
The pKa was 3.34.
